Each structure is given as a SMILES string.

Turning to `O=c1cc(C(F)(F)F)cnn1-c1c(F)cc(Cl)c(O)c1[N+](=O)[O-]`, the melting point (usually the temperature of the solid-liquid transition) is 146 to 148 °C. Turning to `CCC1CC(=O)NN=C1c1ccc2nc(-c3ccncc3)[nH]c2c1` (stereo not drawn), the melting point was 299 to 302 °C. Regarding `CN1Cc2c(-c3nc(CNCc4ccccc4)no3)ncn2-c2ccccc2C1=O`, the melting point was 195 to 198 °C.

In the case of `CN1CC(c2ccccc2)=C(O)C1=O`, the melting point was 245 to 250 °C. For `CCc1ccc2nc(-c3ccc(-c4ccccc4)cc3)c(N)c(C(=O)O)c2c1` the value was 240 to 241 °C; for `COc1ccc(NC(=O)OC(C)(C)C)c(C(=O)NCCc2ccc(N=C(N)c3cccs3)cc2)c1`, 190 to 192 °C. For `CC(C)n1nc(-c2c(Sc3ccccc3)nc(N)nc2-c2ccccc2)ccc1=O` the value was 214 to 215 °C; for `C=C(Cl)COc1cc(C)nc(NCCCCCC)n1`, 36 to 37 °C.

With `CCOC(=O)CSc1nc(N)cc(Cl)n1`, the melting point fell in the range of 113 to 116 °C. The figure for `O=P1(c2ccc(-c3ccccc3)cc2)c2ccccc2CN1c1ccccc1` (stereo not drawn) is 259 to 261 °C; for `COC=C(C(=O)OC)c1ccc(CC(=O)O)cc1` it is 81 to 84 °C; for `O=S(=O)(Cc1ccc(Cc2ccc(NC3=NCCN3)cc2)cc1)NCc1ccccc1` it is 115 to 118 °C. For `CCCCCCCc1ccc(C(=O)CCC(=O)O)cc1` the value was 101 to 104 °C; for `O=C1CCC(N2Cc3cc(CNC(=O)Nc4ccc(Cl)c(C(F)(F)F)c4)ccc3C2=O)C(=O)N1` (stereo not drawn), 261 to 263 °C. Regarding `COc1ccc(C)cc1NC(=O)Nc1ccc(N2CCN(C(N)=O)CC2)cc1`, the melting point came out at 136 °C.

`O=C1CN2Cc3ccc(OCCCC(=O)N(CCO)CCCCC4CCCCC4)cc3N=C2N1` had a melting point of 113 to 114 °C. `Cn1c(C(F)(F)F)cc(=O)n(-c2ccc3snc(CP(=O)(O)O)c3c2)c1=O` registered a melting point greater than 230 °C.

`CC(C)c1cccc(C(C)C)c1NC(=O)C(Br)c1ccccc1` (stereo not drawn) yielded a melting point of 207 to 210 °C. The figure for `COc1cc(Nc2nccc(-c3cn(S(=O)(=O)c4ccccc4)c4ccccc34)n2)cc(OC)c1OC` is 202 °C. `Nc1c(-c2ccc(OC(F)(F)F)cc2)nnn1-c1ccc(C(F)(F)F)cc1F` came in with a melting point of 134 to 135 °C. Compound `COc1ccc(C(C)=Cc2ccc3ccccc3c2)cc1` registered a melting point of 141 °C. In turn, `CCCCCCCCCCCCCCCCCCNC(=O)OCC(CN(C(C)=O)S(=O)(=O)CCCI)NC(C)=O` (stereo not drawn) yielded a melting point of 118 to 119 °C. Compound `Cc1c(SCCCCl)ccnc1CSc1ncccn1` had a melting point of 83 to 85 °C. Regarding `O=C(Cc1c[nH]c2ccccc12)Nc1ccccc1C(=O)Nc1ccccc1`, the melting point is 235 to 236 °C. The figure for `O=C(c1ccccc1)C1CCN(Cc2cncc(-c3ccccc3)c2)CC1` is 91 to 93 °C. For `COCC(C)NC1=NS(=O)(=O)c2cc(Cl)cnc2N1` (stereo not drawn) the value was 150 to 156 °C; for `O=C(c1c[nH]c2ccc(Br)cc12)C(F)(F)F`, 254 °C; for `C1=C(c2ccccc2)CC(CN2CCN(c3ccccn3)CC2)CC1` (stereo not drawn), 96 to 98 °C.

For the compound `Cc1ccc(CC2CCN(C(=O)NC(=O)c3ccc(OCc4ccccc4)cc3)CC2)cc1`, the melting point lay within 204 to 208 °C. The figure for `CC(=O)N1CCc2ccc(C(=O)NO)cc2C1` is 177 to 181 °C; for `COC(=O)C1=C(C)NC(C)=C(Cl)C1c1ccccc1` (stereo not drawn) it is 147 °C; for `COc1cc(C)nc(NC(=O)NS(=O)(=O)c2ccccc2-n2cccn2)n1` it is 200 to 204 °C. For `CCOC(=O)CN(C)C(=O)c1ccn2c1CNc1ccccc1C2` the value was 147 to 148 °C. For `OC(c1ccccn1)c1cc(C(F)(F)F)nc2c(C(F)(F)F)cccc12` (stereo not drawn) the value was 133 to 135 °C; for `COc1ccc(CCc2nc3ccccc3c(=O)n2CCN(C)C)cc1`, 73.5 to 74.5 °C; for `O=c1c2cc(F)c(N3CCCC3)nc2n(-c2cccc(C(F)(F)F)c2)c(=O)n1O`, 136 to 138 °C. Take `CN1C(=O)CN(C(N)=O)C(c2ccccc2)c2cc(Cl)ccc21` (stereo not drawn): the melting point fell in the range of 214 to 217 °C. Compound `CCCCOC(=O)CNC(=O)c1ncccc1OCc1ccccc1` had a melting point of 55 to 58 °C. The compound `CCOC(=O)[C@H](CCc1ccccc1)NC(=O)C(C)(C)NC(=O)[C@@H](S)C1CCOCC1` returned a melting point of 157 to 158 °C.

Compound `CC(=O)NCCc1coc2ccc(OCC#N)cc12` yielded a melting point of 72 to 73 °C. Take `CC(O)C=Cc1ccc2c(c1)Cc1ccccc1-2` (stereo not drawn): the melting point stood at 153 °C. For `Cc1nnn(-c2ccc(F)cc2)c1CCl` the value was 70 to 71 °C. The figure for `O=Cc1cccc(CSCCNC(=O)c2c(Cl)cccc2Cl)c1` is 63 to 65 °C; for `COc1ccc(-c2cc3ccc(C)cc3[nH]2)cc1` it is 220 °C; for `Cc1ccc(Cl)c2[nH]c(=O)oc(=O)c12` it is 248 to 250 °C. `Cc1ccccc1-c1ccc(C(=O)N2Cc3ccc(C(=O)NCc4csc(-c5ccc(Cl)cc5)n4)n3Cc3ccccc32)cc1C` had a melting point of 61 to 64 °C. The figure for `CC(C)(C)NC(=O)c1ccncc1` is 115 to 117 °C; for `CCN(CC)c1ccc(/C=C/c2cc(/C=C/c3ccc4cc[nH]c4c3)[nH]n2)c(OC)c1` it is 104 to 108 °C. The figure for `COc1cccc2c(Cl)nc(Cl)nc12` is 155 to 157 °C. For `COC(=O)c1coc(-c2ncn3c2CN(C)C(=O)c2sccc2-3)n1` the value was 254 to 255 °C; for `O=C(NCCCC[C@@H](C(=O)O)n1c2ccccc2c2ccccc21)c1ccc(C(=O)c2ccccc2)cc1`, 97 to 98 °C. Regarding `CC1CC2C3CCC4CC(O)CCC4(C)C3C(=O)CC2(C)C1C1(C)OCCO1` (stereo not drawn), the melting point was 122 to 124 °C. For `CC#CC(=O)N[C@H]1CC[C@H](CCN2CCN(c3nccc4c3CCO4)CC2)CC1`, the melting point came out at 193 °C. The figure for `CCOC(=O)c1cn(C)c2cnc3cc(F)c(N4CCN(C(=O)CC(F)(F)F)C(c5ccc(OCc6ccccc6)c(OC)c5)C4)cc3c2c1=O` (stereo not drawn) is 154 °C; for `CC(C)(Oc1ccc(C(=O)c2ccc(Cl)cc2)cc1)C(=O)NCC(=O)O` it is 144 to 146 °C. The compound `CNC(=O)c1ccccc1Nc1nc(Nc2cc3c(cc2OC)CCN(CCOC)CC3)ncc1Br` gave a melting point of 171 to 175 °C.

Turning to `O=C(OCc1ccc(Cl)cc1)c1ncn2c1[C@@H]1CCCN1C(=O)c1c(Cl)cccc1-2`, the melting point was 183 to 184 °C.

As to `CN1C(=S)NC(=O)C1=Cc1cc(C(C)(C)C)c(O)c(C(C)(C)C)c1`, the melting point lay in the range of 242 to 244 °C. For `CCOC(=O)c1cc(-c2ccccc2OC)[nH]c1N` the value was 128 °C. The figure for `CC(=O)N1CC(=O)N2CCc3ccccc3C2C1` (stereo not drawn) is 144 to 145 °C; for `CCN(CC)C(=O)C1CCC2C3CNC4=CC(=O)C=CC4(C)C3CCC12C` (stereo not drawn) it is greater than 250 °C; for `COC(=O)c1cccc(F)c1OC` it is 99 to 101 °C.

As for `CCOc1cccc(COc2ccc3c(c2)C=C(C(=O)O)CCS3(=O)=O)c1`, the melting point was in the range of 150 to 154 °C.
